From PubChem BioAssay (NCI) come the findings set out here.

Structures are written as SMILES.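 Tested at 5 concentrations; 48 h exposure; 96-well plates; endpoints linearly interpolated, else capped at highest concentration. GI50 marks 50% less growth. TGI denotes the concentration required for complete inhibition of growth.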

Assay in all cases: DTP human tumour cell line panel, 48 h
Assay [1] has as its system CCRF-CEM leukemia.
Assay [2] deals with LOX IMVI melanoma.
Assay [3] has as its system BT-549 breast.
For assay [4], the system named is SK-MEL-5 melanoma.
Assay [5] has as its system HCC-2998 colon.
Assay [6] relates to EKVX NSCLC.
The subject of assay [7] is T-47D breast.
Assay [8] relates to K-562 leukemia.
Assay [9] relates to OVCAR-8 ovarian.

`Nc1c(S(=O)(=O)O)cc(Nc2cccc(S(=O)(=O)/C=C/S(=O)(=O)O)c2)c2c1C(=O)c1ccccc1C2=O`: the TGI in assay [1], in [2], in assay [3], in assay [4], in assay [5] and in [6] was > 100 µM in each case. Also, the TGI in [7], in assay [8] and in [9] was > 100 µM in each case.

Turning to `Nc1ccc(-n2c(=O)oc3ccc(Cl)cc3c2=O)c(Cl)c1`, the GI50 is 0.139 µM in assay [1]; 0.128 µM in assay [2]; 0.0844 µM in assay [3]; 0.048 µM in assay [4]; 0.377 µM in assay [5]; 0.213 µM in assay [6]. For the same compound, the GI50 in assay [7] is 0.0679 µM; in assay [8] it was 0.108 µM; in assay [9], 0.147 µM. For the same compound, the TGI in [1] was 1.56 µM; in [2], 0.946 µM; in [3], 0.338 µM; in assay [4] it was 0.136 µM; in assay [5], 2.65 µM; in [6], > 56.3 µM. The figures for the TGI in assay [7], in [8] and in assay [9] were 0.263 µM, > 100 µM and 5.53 µM, respectively.

On to `CC(=O)NC1=CC(=O)c2cc(C)cc(O)c2C1=O`, for which the TGI came to 12.9 µM in assay [1]; 7.74 µM in assay [2]; 18.9 µM in assay [3]; 2.65 µM in assay [4]; 5.69 µM in assay [5]; 31.7 µM in assay [6]. In addition, the TGI in assay [7] turned out to be 35 µM; in [8] it was 14.7 µM; in [9], 18.7 µM.

Regarding `CCOc1cc(C2SCC(=O)N2c2nc3cc4sc(N5C(=O)CSC5c5ccc(O)c(OCC)c5)nc4cc3s2)ccc1O` (centres undefined), the TGI in assay [1] was > 84.2 µM; in assay [2], > 100 µM; in assay [3] it was > 85.4 µM; in assay [4], > 100 µM; in [5] it was > 100 µM; in assay [6], > 100 µM. Also, the TGI in assay [7], in assay [8] and in assay [9] was > 100 µM throughout.

Regarding `CC1CCC2(CC1)N=C1CCC(C)CC1C1(CCC(C)CC1)N2` (centres undefined), the TGI in assay [1], in [2], in assay [3], in [4], in assay [5] and in assay [7] was > 100 µM in each case. In addition, the TGI in [8] and in [9] was > 100 µM each time.

On to `COc1cc2c(cc1Cl)n([O-])c(C#N)c(N1CCN(c3ccc([N+](=O)[O-])cc3)CC1)[n+]2=O`, for which the TGI in assay [1] is > 100 µM; in assay [2] it was 73.6 µM; in assay [3], > 100 µM; in assay [4], > 59.6 µM; in [5] it was 78.8 µM; in [6] it was > 100 µM. In addition, the figures for the TGI in [7], in assay [8] and in assay [9] were > 81.5 µM, > 100 µM and 60.1 µM, respectively.

With `O=C(CCCn1ccnc1[N+](=O)[O-])NCCn1ccnc1[N+](=O)[O-]`, the TGI in [1], in assay [2], in [3], in assay [4], in assay [5] and in assay [6] was > 100 µM in each case. For the same compound, the total growth inhibition concentration (TGI) in [7], in assay [8] and in assay [9] was > 100 µM each time.

With `CC(C)C(C/C=C1\CC(CO)(COC(=O)CC(C(C)C)C(C)C)OC1=O)C(C)C` (centres undefined), the TGI was 36.2 µM in assay [1]; 27.3 µM in assay [2]; 27.8 µM in assay [3]; 23 µM in [4]; 18.7 µM in assay [5]; 23.5 µM in assay [6]. The results for the TGI in assay [7], in assay [8] and in [9] were 30.7 µM, 19.6 µM and 33 µM, respectively.

On to `Cc1cc([N+](=O)[O-])ccc1N=NC(=O)NNc1ccc([N+](=O)[O-])cc1C`, for which the TGI in assay [1] came out at 41.7 µM; in [2] it was 29.8 µM; in assay [3], 28.3 µM; in assay [4], 26.7 µM; in [5] it was 31 µM; in [7] it was 28.9 µM. Besides, the TGI in assay [8] was found to be 39.9 µM; in assay [9], 30 µM.

Regarding `O=C1C[C@H](c2ccccc2)C2(C(=O)c3ccccc3C2=O)[C@H](c2ccccc2)C1`, the total growth inhibition concentration (TGI) in assay [1], in [3], in [4], in assay [5], in [7] and in assay [8] was > 100 µM each time. Also, in assay [9], the TGI was > 100 µM.

For `CCC(C)C1(O)OC2CC3(C)OC(=CC3=O)/C(C)=C\C3OC(=O)C1(C)C32` (centres undefined), the TGI is > 100 µM in [1]; 49.4 µM in assay [2]; 12.8 µM in [3]; 23.1 µM in assay [4]; 30.1 µM in [5]; 32.2 µM in [6]. In addition, the TGI is 33.7 µM in assay [7], > 100 µM in [8] and 59.9 µM in assay [9].

For `CC(C)C1=CC23CCC4C(C)(C(=O)O)CCCC4(C)C2CC1C(C(=O)O)C3C(=O)O` (centres undefined), the TGI in [1], in [2], in assay [3], in assay [4], in [6] and in [7] was > 100 µM each time. Moreover, the TGI in [8] and in [9] was > 100 µM throughout.

As for `CCCCCCOc1ccc(NC2=C(Cl)C(=O)c3ncccc3C2=O)cc1`, the TGI in assay [1] is 5.96 µM; in assay [2] it was 4.15 µM; in assay [3], 3.56 µM; in assay [4] it was 2.92 µM; in assay [6], > 10 µM; in [7], 4.03 µM. In addition, the TGI in assay [8] and in [9] was > 10 µM throughout.

Regarding `O=C1C(N=Nc2ccc(-c3nc4ccccc4[nH]3)cc2)NC(=S)N1c1ccccc1` (centres undefined), the TGI in assay [1] is 56 µM; in [2], 39.4 µM; in [3], > 100 µM; in assay [4], > 100 µM; in assay [5] it was 41.7 µM; in assay [6] it was > 100 µM. The TGI in [7] was 62.8 µM; in assay [8] it was 35.8 µM; in [9] it was > 100 µM.

Usually TGI stands for the concentration giving total growth inhibition. A lower TGI goes with greater sensitivity of the cells. For orientation: GI50 means the concentration at which growth is held to half of that of the control.
